Source: the NIST ThermoML archive (doi:10.1021/acs.jced.7b00378)
± gives the expanded uncertainty stated by the source.

Experiments:
[1] = wn = mass fraction of the nth substance listed; conditions: 100 kPa, Liquid, Vibrating tube method
[2] = refractive index (Na D-line) (dimensionless); wn = mass fraction of the nth substance listed; conditions: 100 kPa, Liquid, Standard Abbe refractometry

`O=S(=O)([O-])[O-].[Mg+2]` [magnesium sulfate] + O showed a mass density ([1]; 288.15 K, w1 = 0.2409) of 1274.47 ± 1.1 kg/m3, a mass density ([1]; 298.15 K, w1 = 0.2768) of 1302.41 ± 1.1 kg/m3 and a mass density ([1]; 308.15 K, w1 = 0.2974) of 1325.91 ± 1.1 kg/m3. For the same compound, the refractive index ([2]; 288.15 K, w1 = 0.2409) was 1.384 ± 0.002, the refractive index ([2]; 298.15 K, w1 = 0.2768) was 1.3895 ± 0.0021 and the refractive index ([2]; 308.15 K, w1 = 0.2974) was 1.3902 ± 0.0021.
